We go through one compound from patent publication US11414379B2, “SPAK kinase inhibitors as neuroprotective agents” (United States Government as represented by the Department …, priority 2018, dated 2022).

In one test the target is T1, GST-[T233E]SPAK kinase (Homo sapiens, UniProt Q9UEW8, T231E).
T1 construct: made in house; host or cells: E. coli
Put plainly: SPAK kinase assay employing CATCHtide. It is filed as biochemical. On the procedure:
SPAK kinase assays employing CATCHtide (cation chloride co-transporter peptide substrate). Peptide kinase assays, performed in triplicate, were set up in a total volume of 50 μl containing 0.5 μg GST-[T233E]SPAK kinase (˜5 nM at ˜10% purity) in 50 mM Tris/HCl, pH 7.5, 0.1 mM EGTA, 10 mM MgCl2, 300 μM CATCHtide ([…]; SEQ ID NO:1), […] [γ-32P]ATP (˜500 cpm/pmol) and the indicated concentrations of inhibitor dissolved in DMSO. After incubation for 30 min at 30° C., reactions were terminated by spotting 40 μl of the reaction mix onto P81 phosphocellulose paper and immersion in 50 mM phosphoric acid. The papers were washed extensively and the incorporation of [γ-^32P]ATP into CATCHtide was quantified by Cerenkov counting. IC^50 values were calculated with GraphPad Prism using non-linear regression analysis.
Referring to FIG. 7A, the activation of SPAK kinase by MO25α is shown. SPAK was assayed in the absence or presence of five-fold molar excess of wild-type MO25α.
Referring to FIG. 7B, kinetic data was determined for ZT-1a in the absence or presence of five-fold molar excess of wild-type MO25α. Data points are the average of three determinations, and the error bars are +/−SEM.

The subject of test [1] is Ang II-mediated hypertensive mice, pdMCAO. In words: Infarct volume and hemispheric swelling after pdMCAO in Ang II-infused mice. It is filed as in vivo, mouse. The settings on record: Ang II-infused mice (male or female); 2.5 mg/kg i.p. at 3 and 8 hrs after pdMCAO; 24 hrs; vs Veh. As to the method:
C57BL/6J mice received subcutaneous (s.c.) infusion of either saline or AngII via osmotic minipumps (model 1004, Alzet) at a rate of 1000 ng/kg/min for 14 days. BP was measured in awake mice by a tail-cuff method (Kent Scientific) as described previously (Huang et al. (2019) Stroke. 50:1021-1025).
Saline-infused control and Ang II-mediated HTN mice were subsequently underwent permanent occlusion of the distal branches of the middle cerebral artery (pdMCAO) as described previously (Huang et al. (2019) Stroke. 50:1021-1025). Under isoflurane anesthesia, a skin incision at the midline of the neck was made and the left CCA was exposed and occluded by ligation and the skin was sutured. Another skin incision (1 cm) was made between the left eye and the ear using fine operation scissors. The temporal muscle was identified and detached from the skull in its apical and dorsal part without totally removing the muscle by the forceps. The MCA below the transparent skull in the rostral part of the temporal area, dorsal to the retro-orbital sinus was identified. If the MCA bifurcation was not visible (due to an anatomical normal variation), the most rostral vessel was identified. […] The artery, proximal and distal to the MCA bifurcation, was coagulated with the electrocoagulation forceps (in a bipolar mode at 7 W). […] The animal was placed in a cage and monitored for recovery from anesthesia. […]

One may read the IC50 as the point on the concentration scale where inhibition reaches its midpoint.

Take `Cc1cc(C(C#N)c2ccc(Cl)cc2)c(Cl)cc1NC(=O)c1cc(Cl)ccc1O` (stereo not drawn) [ZT-1a, 5-chloro-N-(5-chloro-4-((4-chlorophenyl)(cyano)methyl)-2-methylphenyl)-2-hydroxy-benzamide]: on GST-[T233E]SPAK kinase, the “change of IC50 values by addition of MO25α” value was “not significantly altered”. In addition, the “change of IC50 values with increasing ATP concentrations” value on GST-[T233E]SPAK kinase (SPAK activity at different ATP concentrations) is “unchanged”. In addition, the IC50 was found to be 40.5 µM against GST-[T233E]SPAK kinase (absence of wild-type MO25α) and 41.3 µM at GST-[T233E]SPAK kinase (presence of five-fold molar excess of wild-type MO25α). Moreover, the “decrease of hemispheric swelling” value in test [1] was ~50%. For the same compound, the “decrease of infarct volume” value in test [1] is given as ~50%.
